Data from paper PMC10813753 (Biology, 2024).

What was measured:
[1] = test system: telomeric G4 sequence F21T; assay: FRET-based DNA melting assay, telomeric G4 F21T; assay type: binding, human; conditions: 0.2 μM F21T, renaturing process, K+ buffer
Experimental: FRET DNA melting assays were conducted following standard reported procedures. Briefly, the employed oligonucleotides F21T (5′-FAM—(GGG TTA)3GGG—TAMRA-3′) and F10T (5′-FAM—TAT AGC TA TA/Sp18/TA GCT ATA—TAMRA-3′) were dissolved in buffer at 0.25 μM concentration and annealed by heating at 90 °C for 5 min, and then immediately cooling to 0 °C, in the case of F21T, or slowly to rt (F10T) during a period of 3 hours. The solutions were allowed to stand at 4 °C at least overnight.
Tested compounds 1–4 were dissolved in water with up to a maximum 10% DMSO (50 μM stock solution). Each stock solution was then gradually diluted to reach the final concentrations in the assay from 0 to 10 μM and a fixed 0.2 μM concentration of target sequences F21T or F10T. The buffer used for G4 sequence F21T was 10 mM KCl, 90 mM LiCl and 10 mM Li-cacodylate, pH 7.3. The buffer employed for F10T was 100 mM LiCl and 10 mM Li-cacodylate.
The melting process program consisted of an incubation step at 24 °C for 5 min and then a temperature ramp (1 °C/min rate) with fluorescence recordings at every degree up to 95 °C. Subsequently, the microplate with the samples (50 μL) was incubated for 5 min at 96 °C and then gradually cooled by using a temperature ramp of −1 °C/min, with fluorescence measurements at every degree down to 25 °C. The melting and refolding (or renaturing) curves were registered based on the change in emission of the FAM (6-carboxyfluorescein) fluorophore, excited at 492 nm and emitting at 516 nm. Melting temperature values (Tm) were determined from replicate experiments using normalized curves and considering mid-transition T1/2 temperatures.

[2] = test system: HFF-1 cells (healthy fibroblasts); assay: MTT viability assay HFF-1; assay type: cell-based, human; conditions: 72 h
Experimental: (§1) A panel of five tumor cell lines and two normal cell lines was used to preliminarily test the cytotoxicity of compounds 1–4, and the experiments were conducted as previously reported. All human cell lines were acquired from American Type Culture Collection (ATCC): tumor PC-3 and DU145 (prostate), HeLa (cervix), MCF7 (breast) and HT29 (colorectal) and healthy HFF-1 (fibroblast) and RWPE-1 (prostate). The cell catalogue reference and culture media used in the experiments were CRL-1435^TM, RPMI (PC-3), HTB-81™, RPMI (DU145), CCL-2^TM, DMEM (HeLa), HTB-22^TM, DMEM (MCF-7), HTB-38^TM, modified McCoy’s 5a medium, Catalogue No. 30-2007 (HT29), SCRC-1041^TM, DMEM (HFF-1) and CRL-11609^TM, Keratinocyte-SFM (RWPE-1). Culture media were purchased from Merck: RPMI-1640, DMEM + 10% FBS (Fetal Bovine Serum) + […] (penicillin/streptomycin/amphotericin B). Media and supplements for RWPE-1 were from ThermoFisher (17005075, Madrid, Spain). MCF7 cells were additionally supplemented with insulin (0.001 mg/mL in 500 mL media). Cells were kept at 37 °C (5% CO2), and culture media were renewed three times per week. When the cells reached 80–100% confluence, they were trypsinized and centrifuged, and the concentration was adjusted to each experiment. Cells were seeded at a density of ~10,000 cells/well into 24-well plates. The cells were treated with ligands 1–4 or the cytotoxic agents PhenQE8, PhenDC3 or cisplatin at different concentrations (10 nM–100 μM). Compound solutions were freshly prepared using the appropriate culture medium. Triplicate experiments were run. For MTT viability assays, after 72 h incubation, 50 μL of MTT (5 mg/mL) was added, and an additional incubation of 4 h was allowed. The medium in each well was then replaced by DMSO, and the absorbance was measured at 570 nm using an ELISA plate reader. Absorbances were normalized using negative controls (untreated cells, in triplicate, with a maximum of 0.9% DMSO content). Dose–response curves were obtained by plotting the percentage of viable cells versus logarithmic compound concentration. IC50 values were determined using Kaleidagragh^TM (3.52) software by adjusting the data to Equation 1/(1 + 10^(m2*(log(m1) − x))); m1 = 0.000003; m2 = 1.

Calf thymus CT DNA = assay: CT DNA viscosity titration; assay type: binding; conditions: 25 °C, 10 mM sodium phosphate buffer pH 7.2, mean slope
Experimental: The DNA viscosity titration was conducted as previously reported. For that purpose, Calf thymus CT DNA was used. DNA and compound 1 solutions were freshly prepared in 10 mM NaH2PO4/Na2HPO4 buffer, pH = 7.2. CT DNA solutions (~0.35 mM, nt) were equilibrated for 20 min at 25 °C in a thermostated bath, and 20 flow times were then recorded. Several aliquots (ca. 25–60 μL each) of a solution of ligand 1 (~1.8 mM) were sequentially added. After a 20 min equilibration at 25 °C, flow times were registered. Finally, viscosities (μ) were calculated at each titration point, from the averaged flow times recorded and the viscometer constant. The viscosity graphs were obtained by plotting (μ/μ0)^1/3 versus r, the molar ratio of bound ligand to DNA. The parameter μ0 represents the DNA solution viscosity in the absence of a compound.
Viscosity titration assays are known to provide useful information, mainly in reversible dsDNA-ligand non-covalent binding modes, and, especially, they are normally used to differentiate between classical DNA intercalants from groove or external binders. The theory of Cohen and Eisenberg establishes that the existence (or not) of changes in the viscosity of a DNA solution upon binding to small-molecule ligands could be correlated to the ligand binding mode. […]

[3] = test system: DU145 cells (prostate tumor); assay: MTT viability assay DU145; assay type: cell-based, human; conditions: 72 h
Experimental: as §1

## 2,2′-(1,10-Phenanthroline-2,9-diyl)-bis(methylene)-bis(hydrazine-1-carbothioamide) [compound 1]
[1]; 5 μM compound
  ΔTm of telomeric G4 F21T: ~ 7 °C
[1]; 10 μM compound
  ΔTm of telomeric G4 F21T: ~ 12 °C
[2]
  IC50: 74.4 ± 3.1 µM
Calf thymus CT DNA
  viscosity slope, (η/ηo)^1/3 versus r: ca. 0.13
[3]
  IC50: 62.2 ± 5.9 µM
